In article PMC3177832, “Structure-Based Development of Small Molecule PFKFB3 Inhibitors: A Framework for Potential Cancer Therapeutic Agents Targeting the Warburg Effect” (PLoS ONE, 2011):
“Also recorded” adds a separate entry of the source.

Experiments:
human PFKFB3 = molecular target: T1, human PFKFB3 (Homo sapiens, UniProt Q16875); assay: 2-Kase assay and kinetic analysis (enzyme-coupled); format: biochemical; conditions: for Inhibition (type): Lineweaver-Burk analysis; for IC50: PFKFB3 2-Kase activity; for Ki: steady state inhibition against Fru-6-P; for PFKFB3 inhibition at twice the IC50: twice the IC50 for PFKFB3 (N4A = 6 µM, YN1 = 1.3 µM)
T1 construct: The structure contains a total of 443 amino acid residues of the full-length protein of 520 residues; 6xHis; made in house; host or cells: Escherichia coli BL21(DE3) pLysS
Method: To determine steady-state initial reaction rates, the 2-Kase reactions were performed first and the Fru-2,6-BP produced was measured by a conventional enzyme-coupled kinetics assay as described previously, [36]. Initial rates of decrease in absorbance (Abs) at 340 nm were corrected with the rate of the control reaction in which no Fru-2,6-BP was present. Negative controls were carried out in the absence of enzyme and positive controls indicate the reaction in the presence of enzyme without inhibitor compounds. […] IC50 values were determined in quadruplicate. For the kinetic studies, concentrations of one of substrate and inhibitor were varied and decrease in absorbance at 340 nm was measured. The inhibition patterns were analyzed using the program written by Cleland, in which Ki is the dissociation constants for the inhibitor from enzyme-inhibitor complex. For Selectivity studies, the 2-Kase assays were performed first and the F-2,6-P2 produced was measured by an enzyme coupled kinetics assay as described above. The His6-tagged PFKFB isoforms, PFKFB1, PFKFB2, and PFKFB4 were expressed in Escherichia coli C41(DE3) and purified using Ni-NTA affinity columns.

PFKFB1 = molecular target: T2, PFKFB1 (Homo sapiens, UniProt P16118); assay: 2-Kase assay, isoform selectivity; format: biochemical; conditions: N4A = 6 µM, YN1 = 1.3 µM
T2 construct: His6; made in house; host or cells: Escherichia coli C41(DE3)
Method: (§1) To determine steady-state initial reaction rates, the 2-Kase reactions were performed first and the Fru-2,6-BP produced was measured by a conventional enzyme-coupled kinetics assay as described previously, [36]. Initial rates of decrease in absorbance (Abs) at 340 nm were corrected with the rate of the control reaction in which no Fru-2,6-BP was present. Negative controls were carried out in the absence of enzyme and positive controls indicate the reaction in the presence of enzyme without inhibitor compounds. The percentage of Inhibitory activity was calculated according to the formula: % inhibition = 100×[1−(Absnegativecontrol−Abscompound)/(Absnegativecontrol−Abspositivecontrol)]. IC50 values were determined in quadruplicate. For the kinetic studies, concentrations of one of substrate and inhibitor were varied and decrease in absorbance at 340 nm was measured. The inhibition patterns were analyzed using the program written by Cleland, in which Ki is the dissociation constants for the inhibitor from enzyme-inhibitor complex. For Selectivity studies, the 2-Kase assays were performed first and the F-2,6-P2 produced was measured by an enzyme coupled kinetics assay as described above. The His6-tagged PFKFB isoforms, PFKFB1, PFKFB2, and PFKFB4 were expressed in Escherichia coli C41(DE3) and purified using Ni-NTA affinity columns.

PFKFB2 = molecular target: T3, PFKFB2 (Homo sapiens, UniProt O60825); assay: 2-Kase assay, isoform selectivity; format: biochemical; conditions: N4A = 6 µM, YN1 = 1.3 µM
T3 construct: His6; made in house; host or cells: Escherichia coli C41(DE3)
Method: as §1

PFKFB4 = molecular target: T4, PFKFB4 (Homo sapiens, UniProt Q16877); assay: 2-Kase assay, isoform selectivity; format: biochemical; conditions: N4A = 6 µM, YN1 = 1.3 µM
T4 construct: His6; made in house; host or cells: Escherichia coli C41(DE3)
Method: as §1

HeLa cells [1] = assay: Cellular Fru-2,6-BP level determination; format: cell-based, human; conditions: 25 µM
Method: (§2) HeLa cells were plated at a density of 2.5×10^5 in a 6-well plate in DMEM containing 10% FCS. The media were replaced with fresh DMEM containing either vehicle (dimethyl sulfoxide) or 25 µM of inhibitor the following day. After 0, 4, 8, 12, 24, or 48 hours of incubation with each inhibitor, media samples were collected for measuring the lactate secretion levels using a lactate oxidase-based assay kit (Sigma-Aldrich) and the lactate concentration was normalized to the total cellular protein concentration. The Fru-2,6-BP level was determined with collected cells at times of 0, 4,8,12,24, or 48 hours after the treatment, using the method described previously.

HeLa cells [2] = assay: Lactate secretion (lactate oxidase-based assay kit); format: cell-based, human; conditions: 25 µM
Method: as §2

HeLa and T47D cells = assay: Cell growth inhibition (XTT assay or trypan blue counting); format: cell-based, human; conditions: for Reduction in cell proliferation: 25 µM, human adenocarcinoma cells, compared to unexposed cells; for GI50: Homo sapiens, 36 hours incubation, inhibitor concentration for 50% of vehicle-treated cell growth
Method: (§3) Cell growth inhibition was determined by an XTT-based in-vitro toxicology assay (Sigma-Aldrich) or trypan blue staining. Cells were plated at a density of 3.5×10^4 per well in a 24-well plate in DMEM containing 10% FCS. These cells were allowed to attach for 24 hours, and the media were replaced with fresh media containing either vehicle (dimethyl sulfoxide) or appropriate concentrations of test compounds. After 36 hours of incubation with either vehicle or compounds, cells were trypsinized and cell viability was determined by the trypan blue exclusion assay using a hemacytometer. For the XTT assay, cells were seeded into 96-well cell culture plates at a density of 0.6×10^4 per well. After the appropriate treatment described above, cells were incubated with 0.1 mg/ml of 2,3-bis(2-methoxy-4-nitro-5-sulfophenyl)-5-[(phenylamino)carbonyl]-2H-tetrazolium hydroxide (XTT) for 4 hours and then cell number was determined by the absorbance at 470 nm, which is proportional to the number of cells that remained attached to the plate. GI50s were calculated as the inhibitor concentration needed for 50% of vehicle-treated cell growth. The appearance of apoptotic or necrotic cells was determined by flow cytometric analysis of cells double stained with Annexin V-FITC and propidium iodide (PI). Apoptotic and necrotic cells were distinguished on the basis of double-labeling for Annexin V-FITC (Sigma-Aldrich) and PI, a membrane-impermeable DNA stain. Floating and freshly trypsinized cells were pooled, washed twice in binding buffer, and processed following manufacturer's instructions. The fluorescence of samples were analyzed by flow cytometry (FACSCalibur®, Becton Dickinson Immunocytometry, San Jose, CA) using the CellQuest (BD Bioscience, Immunocytometry Systems, San Jose, CA, USA) software.

HeLa cells [3] = assay: Soft agar colony formation; format: cell-based, human; conditions: 3 weeks; for Soft agar colony formation: HeLa cells, 25, 50 and 100 µM; for inhibition at 25 µM: Homo sapiens, 504 h, HeLa cells
Method: For HeLa cell colony formation was determined by soft agar assay. Cells ([…]) were mixed in DMEM medium containing 0.35% agarose and varying concentrations of N4A or YN1. Then the cell mixture was added on a layer of 0.6% concentration of bottom agar in 24 well plates and allowed to grow for three weeks at 37°Cunder 5% CO2. Fresh medium containing the inhibitors or vehicle (DMSO) was changed every four days. Colonies of 50 cells or more were counted after three weeks. The experiments were repeated at least five times.

HeLa cells [4] = assay: Flow cytometric analysis of cell death (Annexin V-FITC / PI); format: cell-based, human
Method: as §3

T1 sequence (Q16875 whole entry): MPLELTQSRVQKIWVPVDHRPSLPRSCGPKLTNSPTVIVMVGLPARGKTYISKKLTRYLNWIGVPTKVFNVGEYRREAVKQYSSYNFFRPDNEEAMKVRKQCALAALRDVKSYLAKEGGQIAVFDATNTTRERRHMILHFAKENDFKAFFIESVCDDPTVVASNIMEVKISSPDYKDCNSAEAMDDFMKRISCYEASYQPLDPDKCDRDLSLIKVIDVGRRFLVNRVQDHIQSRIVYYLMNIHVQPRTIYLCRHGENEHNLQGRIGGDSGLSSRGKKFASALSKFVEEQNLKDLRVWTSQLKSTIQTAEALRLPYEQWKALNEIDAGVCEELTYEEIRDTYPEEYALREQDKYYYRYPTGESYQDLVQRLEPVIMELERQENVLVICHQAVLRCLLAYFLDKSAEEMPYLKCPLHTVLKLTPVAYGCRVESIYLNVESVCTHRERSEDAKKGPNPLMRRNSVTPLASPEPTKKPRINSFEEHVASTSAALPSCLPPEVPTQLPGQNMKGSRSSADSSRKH
T3 sequence (O60825 whole entry, canonical isoform): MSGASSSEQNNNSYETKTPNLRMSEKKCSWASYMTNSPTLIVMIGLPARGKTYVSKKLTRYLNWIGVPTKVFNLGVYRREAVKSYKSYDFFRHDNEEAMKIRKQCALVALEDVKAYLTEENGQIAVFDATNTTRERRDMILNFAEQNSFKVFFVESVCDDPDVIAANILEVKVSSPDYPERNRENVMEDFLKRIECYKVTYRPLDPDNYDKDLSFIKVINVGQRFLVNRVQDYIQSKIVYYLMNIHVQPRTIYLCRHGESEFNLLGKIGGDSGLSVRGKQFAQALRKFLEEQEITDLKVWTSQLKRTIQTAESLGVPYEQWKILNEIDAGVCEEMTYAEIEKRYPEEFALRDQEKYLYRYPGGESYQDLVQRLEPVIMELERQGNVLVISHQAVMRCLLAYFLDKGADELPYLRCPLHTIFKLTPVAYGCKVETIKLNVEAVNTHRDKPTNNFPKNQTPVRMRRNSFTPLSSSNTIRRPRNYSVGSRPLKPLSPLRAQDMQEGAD
T2 sequence (P16118 whole entry, canonical isoform): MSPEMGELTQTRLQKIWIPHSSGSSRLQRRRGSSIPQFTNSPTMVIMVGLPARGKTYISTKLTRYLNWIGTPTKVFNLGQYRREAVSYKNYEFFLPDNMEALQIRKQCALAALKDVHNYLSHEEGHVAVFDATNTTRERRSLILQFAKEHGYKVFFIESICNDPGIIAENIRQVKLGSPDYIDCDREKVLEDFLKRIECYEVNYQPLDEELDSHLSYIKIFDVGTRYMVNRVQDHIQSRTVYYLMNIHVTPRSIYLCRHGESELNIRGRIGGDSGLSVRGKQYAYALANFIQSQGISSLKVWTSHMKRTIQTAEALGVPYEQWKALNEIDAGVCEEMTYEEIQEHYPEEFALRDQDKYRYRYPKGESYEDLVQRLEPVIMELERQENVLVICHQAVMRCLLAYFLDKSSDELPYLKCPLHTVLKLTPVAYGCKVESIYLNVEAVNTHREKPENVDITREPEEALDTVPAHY
T4 sequence (Q16877 whole entry, canonical isoform): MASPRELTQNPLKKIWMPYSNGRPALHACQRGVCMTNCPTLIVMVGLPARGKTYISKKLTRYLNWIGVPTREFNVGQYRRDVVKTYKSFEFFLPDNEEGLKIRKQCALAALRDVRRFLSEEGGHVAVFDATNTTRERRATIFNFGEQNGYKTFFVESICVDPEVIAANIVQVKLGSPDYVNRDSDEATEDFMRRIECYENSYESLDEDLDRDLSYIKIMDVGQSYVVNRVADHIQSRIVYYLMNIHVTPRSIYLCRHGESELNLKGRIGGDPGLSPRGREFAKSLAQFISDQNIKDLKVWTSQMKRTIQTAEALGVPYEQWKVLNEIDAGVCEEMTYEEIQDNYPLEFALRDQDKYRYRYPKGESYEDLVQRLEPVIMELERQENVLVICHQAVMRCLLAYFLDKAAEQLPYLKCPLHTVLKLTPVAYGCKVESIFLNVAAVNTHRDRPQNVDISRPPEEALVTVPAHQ

Row | Compound | Inhibition (type) (human PFKFB3) | IC50 (human PFKFB3) | Increase in PFKFB3 inhibition compared to N4A (human PFKFB3; relative to lead N4A) | Ki (human PFKFB3) | PFKFB3 inhibition at twice the IC50 (human PFKFB3) | PFKFB1 inhibition at twice the IC50 for PFKFB3 (PFKFB1) | PFKFB2 inhibition at twice the IC50 for PFKFB3 (PFKFB2) | PFKFB4 inhibition at twice the IC50 for PFKFB3 (PFKFB4) | Reduction of Fru-2,6-BP level (HeLa cells [1]; 48-hour exposure) | Reduction of Fru-2,6-BP level (HeLa cells [1]; 8 hour exposure) | Decrease in lactate secretions (HeLa cells [2]) | Reduction in cell proliferation (HeLa and T47D cells) | GI50 (HeLa and T47D cells) | Soft agar colony formation (HeLa cells [3]) | inhibition at 25 µM (HeLa cells [3]) | Type of cell death induced (HeLa cells [4]; 25 µM) | Type of cell death induced (HeLa cells [4]; 50 µM) | Type of cell death induced (HeLa cells [4]; Annexin V / PI) | Effect of Tween-20 on PFKFB3 inhibition (human PFKFB3; 10 µM compound, in the presence of 0.1% Tween-20) | inhibition at 10 µM (human PFKFB3; 10 µM compound, substrate-saturating conditions)
1 | O=c1c(-c2ccc(O)cc2)coc2c(O)c(O)ccc12 [YN1, 7,8-dihydroxy-3-(4-hydroxyphenyl) chromen-4-one] | Competitive to Fru-6-P | 670 ± 80 nM | 5 fold | 240 ± 30 nM | over 80% | less than 40% | less than 40% | less than 40% | over 40% | approximately 20% | greater than 30% | over 90% | 8200 ± 800 nM | significantly inhibited colony formation | 79% | prone to apoptosis | death by necrosis was significantly increased | induced both apoptotic and necrotic cell death | – | –
2 | O=c1cc(-c2ccc(O)cc2)oc2c(O)c(O)c(O)c(O)c12 [N4A, 5,6,7,8-tetrahydroxy-2-(4-hydroxyphenyl) chromen-4-one] | competitive inhibitor against Fru-6-P; also recorded: Competitive to Fru-6-P | 2970 ± 160 nM | – | 1290 ± 260 nM | over 80% | less than 50% | less than 50% | less than 50% | over 40% | approximately 20% | greater than 30% | 70% | 14200 ± 1500 nM | significantly inhibited colony formation | 64% | prone to apoptosis | death by necrosis was significantly increased | induced both apoptotic and necrotic cell death | not affected | > 65%
3 | CCOC(=O)c1cc2ccc(O)cc2oc1=O [YZ9, ethyl 7-hydroxy-2-oxochromene-3-carboxylate] | – | – | – | – | – | – | – | – | – | – | – | – | 2700 ± 200 nM | – | – | – | – | – | – | –
